This is an account of results in US6730295B2, “Anionic polymers as species specific antibacterial agents” (Genzyme Corporation, priority 2000, dated 2004).

What all share (test): MIC assay (NCCLS broth microdilution)
Assay type in all cases: cell-based
For orientation: In broth dilution the organism is exposed to a series of concentrations in liquid medium.

For one assay, the system named is Branhamella catarrhalis. The settings on record: species 6 = Branhamella catarrhalis; 18-24 hr at 35° C., Mueller-Hinton broth. The procedure:
(§1) The minimum inhibitory concentration (MIC) assay is performed according to the Performance Standards for Antimicrobial Susceptibility Testing, 1998, vol. M 100-S8, Eighth Informational Supplement, NCCLS, 940 West Valley Road, Suite 1400, Wayne, Pa. 19087.
(§2) Polymers to be tested were dissolved in 0.85% saline to a final concentration of either 830 or 1000 μg/ml, the pH was adjusted to 7.0 and the solution was filter-sterilized through a 0.22 μm filter. Two-fold serial dilutions of polymer were prepared in Mueller-Hinton broth with cations aliquotted into 96-well microtiter plates. The plates were then inoculated with […] of target organism, and incubated 18-24 hr at 35° C. The optical density (OD) was then read at 590 nm, and microorganism growth was scored (OD >0.1 is considered to be growth; OD <0.1 is considered growth inhibition). The MIC value was defined as the lowest concentration of compound which inhibits growth.

For another assay, the system named is E. Faecium. The settings on record: species 2 = E. Faecium; 18-24 hr at 35° C., Mueller-Hinton broth. The procedure: as §1, §2
The subject of another assay is E. coli. The settings on record: species 1 = E. coli; 18-24 hr at 35° C., Mueller-Hinton broth. The procedure:
as §1, §2

The subject of the next assay is N. meningitidis. The settings on record: species 5 = N. meningitidis; 18-24 hr at 35° C., Mueller-Hinton broth. The procedure: as §1, §2
A further assay has as its system S. pneumoniae. The settings on record: species 4 = S. pneumoniae; 18-24 hr at 35° C., Mueller-Hinton broth. The procedure:
as §1, §2

The next assay deals with S. sanguis. The settings on record: species 3 = S. sanguis; 18-24 hr at 35° C., Mueller-Hinton broth. The procedure:
as §1, §2

With `CCCCCCCCCCCCOS(=O)(=O)[O-].[Na+]` [sodium dodecyl sulfate], the “minimum inhibitory concentration (MIC)” value was 9 with Branhamella catarrhalis; above 83 in the assay on E. Faecium; above 83 in the assay with E. coli; 28 in the assay with N. meningitidis; 28 in the assay with S. pneumoniae; 28 in the assay on S. sanguis.
